Experimental data reported in patent US12390487B2, “Antiseptic skin prep composition” (Solventum Intellectual Properties Company, priority 2019, dated 2025).

Assay: Solubility of dye in alcohol systems
Type: physicochemical
Source text: It was observed that, Ponceau 4R Dye precipitated on the second day. The others (Brilliant Blue, D&C Green, Carmoisine) were stable over 30 days at room temperature with no precipitation observed. PVPK 120 postpones the precipitation of anionic dyes with CHG to various degrees. It was observed that the azo dye structure with 3 sulphonate groups precipitated out of solution quicker.

Solubility in alcohol systems: good solubility
Structure (SMILES): O=C1OC2(c3ccccc31)c1cc(I)c(O)c(I)c1Oc1c2cc(I)c(O)c1I [Erythrosine]
